Measured values from patent publication US8987273B2, “Substituted imidazo[1,2-B]pyridazines” (Bayer Intellectual Property GmbH, priority 2010, dated 2015).

Assays:
[1] = test system: phospho-AKT at S473 in KPL4 breast tumour cell line; assay: Cellular p-AKT1/2/3-S473 assay; format: cell-based; conditions: KPL4 cells, 2 hours treatment; median; read-out: pAKT-S743 median IC50
[2] = molecular target: His-tagged human recombinant kinase full-length Akt1 (Homo sapiens (Human), UniProt P31749); assay: Akt1 kinase assay (TR-FRET); format: biochemical; conditions: 10 μM ATP; median
His-tagged human recombinant kinase full-length Akt1, sequence (P31749 whole entry): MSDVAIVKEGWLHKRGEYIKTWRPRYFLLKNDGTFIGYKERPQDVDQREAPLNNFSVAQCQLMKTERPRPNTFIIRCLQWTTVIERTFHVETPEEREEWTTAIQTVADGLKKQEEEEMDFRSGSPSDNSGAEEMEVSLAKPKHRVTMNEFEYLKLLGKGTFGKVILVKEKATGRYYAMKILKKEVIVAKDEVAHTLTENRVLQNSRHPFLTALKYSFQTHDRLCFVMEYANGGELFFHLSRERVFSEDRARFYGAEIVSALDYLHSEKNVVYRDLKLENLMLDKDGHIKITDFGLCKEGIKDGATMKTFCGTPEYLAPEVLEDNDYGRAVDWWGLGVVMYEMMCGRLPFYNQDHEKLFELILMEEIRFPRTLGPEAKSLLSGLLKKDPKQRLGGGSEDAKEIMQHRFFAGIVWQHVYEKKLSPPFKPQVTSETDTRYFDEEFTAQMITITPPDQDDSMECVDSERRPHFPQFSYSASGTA
How it was run: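 Full-length His-tagged human Akt1 from insect cells, pre-incubated 15 min with compound, then 60 min at 22° C with 10 μM ATP and 1 μM biotinylated peptide in pH 7.5 TRIS buffer. Phosphopeptide detected by HTRF (665/620 nm ratio); data normalised to no-inhibitor and no-enzyme controls.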

KPL-4 cells = assay: Tumor cell proliferation assay (CellTiter-Glo); format: cell-based; conditions: KPL4; 72 h drug exposure
[3] = molecular target: His-tagged human recombinant kinase full-length Akt2 (Homo sapiens (Human), UniProt P31751); assay: Akt2 kinase assay (TR-FRET); format: biochemical; conditions: 10 μM ATP; median
His-tagged human recombinant kinase full-length Akt2, sequence (P31751 whole entry): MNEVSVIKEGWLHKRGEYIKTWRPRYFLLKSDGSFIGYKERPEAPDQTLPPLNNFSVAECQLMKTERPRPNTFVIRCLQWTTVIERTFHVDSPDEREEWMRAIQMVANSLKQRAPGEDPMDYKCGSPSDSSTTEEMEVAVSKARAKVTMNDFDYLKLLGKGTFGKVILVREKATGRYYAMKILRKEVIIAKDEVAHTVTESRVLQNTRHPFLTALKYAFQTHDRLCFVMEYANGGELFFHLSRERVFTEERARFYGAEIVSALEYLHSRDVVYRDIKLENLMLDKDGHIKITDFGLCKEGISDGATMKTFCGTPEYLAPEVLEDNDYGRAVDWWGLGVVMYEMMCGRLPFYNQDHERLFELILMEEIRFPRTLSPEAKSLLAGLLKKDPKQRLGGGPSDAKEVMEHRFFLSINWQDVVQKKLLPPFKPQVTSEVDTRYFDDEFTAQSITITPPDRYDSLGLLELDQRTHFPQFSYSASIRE
How it was run: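 PDK1-activated full-length His-Akt2 (insect-cell expressed, ~0.2 ng/μl final) pre-incubated with compound 15 min, then reacted 60 min at 22 °C with 10 μM ATP and 1 μM biotinylated peptide in Tris pH 7.5/MgCl2/DTT. EDTA stop; phospho-peptide read by HTRF 665/620 ratio, normalised to no-inhibitor and no-enzyme controls.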

In the case of `NC1(c2ccc(-c3nn4c(-c5ccc(O)nc5)cnc4cc3-c3ccccc3)cc2)CCC1` [Example 4-13, 5-{6-[4-(1-Amino-cyclobutyl)-phenyl]-7-phenyl-imidazo[1,2-b]pyridazin-3-yl}-pyridin-2-ol], the IC50 [1] is reported as 160 nM, the IC50 [2] is reported as 146 nM and the IC50 (KPL-4 cells) is reported as 3360 nM. For the same molecule, the IC50 [3] was 431 nM.
`COC(=O)c1ccc(-c2cnc3cc(-c4ccccc4)c(-c4ccc(C5(N)CCC5)cc4)nn23)cn1` [Example 4-14, 5-{6-[4-(1-Amino-cyclobutyl)-phenyl]-7-phenyl-imidazo[1,2-b]pyridazin-3-yl}-pyridine-2-carboxylic acid methyl ester] showed an IC50 [1] of 920 nM, an IC50 [2] of 19 nM and an IC50 (KPL-4 cells) of 6020 nM. It also gave an IC50 [3] of 115 nM.
